Values after ≈ are worked out from the molar mass of the structure shown. Like-named read-outs stand apart in the source and are kept apart here.
What was measured:
E. coli ATCC25922 [1] = conditions: cited from earlier work
E. coli ATCC25922 [2] = assay: antibiotic susceptibility testing on the array microfluidic chip (redox indicator discoloration); format: cell-based, Escherichia coli; conditions: for MIC: Escherichia coli, read-out: minimum inhibitory concentration (MIC)
Text: (§1) In the present experiment, the array microfluidic chip of the present disclosure is used to perform the antibiotic susceptibility testing on Escherichia coli ATCC25922 (“E. coli ATCC25922” hereafter) and Staphylococcus aureus ATCC29213 (“S. aureus ATCC29213” hereafter) to three antibiotics, namely Amikacin, Gentamicin and Vancomycin.
(§2) In the experiment, the dried powders of Amikacin, Gentamicin or Vancomycin are respectively placed in different reaction wells of the array microfluidic chip with different contents, and then the array microfluidic chip is sealed and keeps refrigerated. Next, redox indicators with proper amounts are respectively added to the bacteria-containing mediums including E. coli ATCC25922 or S. aureus ATCC29213, and the bacteria-containing mediums are transported to different reaction wells of different array microfluidic chips and then mixed with the antibiotic powders with different contents thereof so as to form the reaction solutions including different concentrations of antibiotics.
Next, the array microfluidic chips are placed in the incubator and cultured at 37° C., and the antibiotic susceptibilities of E. coli ATCC25922 and S. aureus ATCC29213 to Amikacin, Gentamicin and Vancomycin are further assessed based on the discoloration of the reaction solutions. In detail, if E. coli ATCC25922 and S. aureus ATCC29213 can grow under the existence of a specific antibiotic with a particular concentration, the color of the reaction solution including the redox indicator will gradually change from blue to purple, and eventually to pink, and the discoloration can be observed on the array microfluidic chip directly. Therefore, the assessing time of the method of antibiotic susceptibility testing of the present disclosure can be greatly shortened.
Please refer to FIG. 10A, FIG. 10B, FIG. 10C and Table 2 simultaneously. […] Furthermore, in FIG. 10C, the far left one is the image of the independent well performed a negative control test, and it is noted that the testing result of the independent well is not shown in Table 2. […]

S. aureus ATCC29213 [3] = assay: as above; format: cell-based, Staphylococcus aureus; conditions: 5 hours and 30 minutes
Text: as §1, §2
Next, the array microfluidic chips are placed in the incubator and cultured at 37° C., and the antibiotic susceptibilities of E. coli ATCC25922 and S. aureus ATCC29213 to Amikacin, Gentamicin and Vancomycin are further assessed based on the discoloration of the reaction solutions. […]

S. aureus ATCC29213 [4] = conditions: cited from earlier work

Molecule: NCC[C@H](O)C(=O)N[C@@H]1C[C@H](N)[C@@H](O[C@H]2O[C@H](CN)[C@@H](O)[C@H](O)[C@H]2O)[C@H](O)[C@H]1O[C@H]1O[C@H](CO)[C@@H](O)[C@H](N)[C@H]1O [Amikacin]
- CLSI standard value MIC (E. coli ATCC25922 [1]): 0.5˜4 μg/mL
- MIC (E. coli ATCC25922 [2]; ATCC25922, array microfluidic chip, 37° C., 4 hours): 1 µg/mL (≈ 1.71 µM)
- MIC (S. aureus ATCC29213 [3]; Staphylococcus aureus, ATCC29213, 37° C., read-out: minimum inhibitory concentration): 1 µg/mL (≈ 1.71 µM)
- CLSI standard value MIC (S. aureus ATCC29213 [4]): 1˜4 μg/mL

Molecule: CN[C@H](CC(C)C)C(=O)N[C@H]1C(=O)N[C@@H](CC(N)=O)C(=O)N[C@H]2C(=O)N[C@H]3C(=O)N[C@H](C(=O)N[C@H](C(=O)O)c4cc(O)cc(O)c4-c4cc3ccc4O)[C@H](O)c3ccc(c(Cl)c3)Oc3cc2cc(c3O[C@@H]2O[C@H](CO)[C@@H](O)[C@H](O)[C@H]2O[C@H]2C[C@](C)(N)[C@H](O)[C@H](C)O2)Oc2ccc(cc2Cl)[C@H]1O [Vancomycin]
- CLSI standard value MIC (E. coli ATCC25922 [1]): R-resistance
- MIC (E. coli ATCC25922 [2]; ATCC25922, 4 h): > 16 µg/mL
- CLSI standard value MIC (S. aureus ATCC29213 [4]): 0.5˜2 μg/mL

Molecule: Gentamicin
- CLSI standard value MIC (E. coli ATCC25922 [1]): 0.251 µg/mL
- minimum inhibitory concentration (MIC) (E. coli ATCC25922 [2]; array microfluidic chip, 37° C., 4 hours): 1 µg/mL
- minimum inhibitory concentration (S. aureus ATCC29213 [3]; 37° C.): 0.25 µg/mL
- CLSI standard value MIC (S. aureus ATCC29213 [4]): 0.12˜1 μg/mL

From patent US12263479B2, “Array microfluidic chip and method of antibiotic susceptibility testing” (MEDFLUID CO., LTD., priority 2021, dated 2025)
